The record followed here is patent US6133279A, “Therapeutic agents for renal diseases and organ preservatives” (Chugai Seiyaku Kabushiki Kaisha, priority 1996, dated 2000).

Experiment [1] relates to porcine kidney-derived LLC-PK1 cells. The experiment is described as follows: Protective effect against oxidized LDL-induced injury of porcine kidney-derived LLC-PK1 cells (1). It is filed as cell-based. As to conditions: Sus scrofa, LLC-PK1, 6 h, mean ± standard deviation, read-out: Cytoprotection rate (%). How it is done: For the purpose of evaluating in vitro cytoprotective effect of the compounds of the present invention, a cytoprotective study was performed using porcine kidney-derived LLC-PK1 cells (ATCC-CRL-13921) injured by oxidized low-density lipoprotein (oxidized LDL).
Oxidized LDL was prepared by incubating 1 mg/ml of rabbit LDL in PBS (-) in the presence of 10 μM CuSO4 at 37° C. for 24 hours. Cell culture was carried out by plating 1.25×10^4 cells/250 μl/well on a 48-well plate containing M199 medium containing 3% FBS. Test compounds were dissolved or suspended in ethanol and added to the wells in an amount of 1.25 μl/well to a concentration of 0.1, 1 or 10 μM in each well. After 16 hours or immediately after the addition of the compounds, oxidized LDL was added to the wells. Probucol, α-tocopherol and Trolox which is a water-soluble analogue of α-tocopherol were used as reference control compounds. Oxidized LDL was diluted twice with saline and then added to the wells in an amount of 62.5 μl/well to a concentration of 100 μg/ml and the cells were cultured for 6 hours after addition of the oxidized LDL. Then, 162.5 μl/well of the culture medium were collected and measured for the lactate dehydrogenase (LDH) level (LD-L: SIGNA DIAGNOSTICS) having leaked into the medium.
The magnitude of cytoprotective effect was expressed as the cytoprotection rate which was determined by calculating the data assuming that the magnitude in wells containing oxidized LDL is 0% and that the magnitude in wells containing saline is 100%.

For experiment [2] the test system is unchanged. Put plainly: Protective effect against oxidized LDL-induced injury of porcine kidney-derived LLC-PK1 cells (2). The settings on record: Sus scrofa, LLC-PK1, 6 h, mean ± standard deviation, read-out: Cytoprotection rate (%). It is filed as cell-based. The method, then: For the purpose of evaluating in vitro cytoprotective effect of the compounds of the present invention, a cytoprotective study was performed using porcine kidney-derived LLC-PK1 cells (ATCC-CRL-13921) injured by oxidized low-density lipoprotein (oxidized LDL) in the same manner as in Test example 1 with the exception of some points.
Preparation of oxidized LDL and the conditions for cell culture and addition of test compounds were the same as in Test example 1. However, oxidized LDL was not diluted with saline and added to cells in an amount of 25 μl/well to a concentration of 91 μg/ml and the cells were cultured for 6 hours after addition of the oxidized LDL. Then, 150 μl/well of the culture medium were collected and measured for the lactate dehydrogenase (LDH) level (LD-L: SIGMA DIAGNOSTICS) having leaked in the medium.

Setting [3] is: compound added 16 hours before adding oxidized LDL.
Where [4] appears, read: compound added immediately before adding oxidized LDL.

Take `CC(C)(C)c1cc2c(c(C(C)(C)C)c1O)CCO2` [Example 1, 4,6-Di-t-butyl-5-hydroxy-2,3-dihydrobenzofuran]: in experiment [1] (setting [3]), the inhibition at 0.1 µM is 22.3 ± 2.8%, the inhibition at 1 µM stood at 104 ± 3.3% and the inhibition at 10 µM was determined as 100.9 ± 0.5%. In experiment [1] (setting [4]), the inhibition at 0.1 µM is 7.6 ± 1.4%, the inhibition at 1 µM turned out to be 99.7 ± 0.4% and the inhibition at 10 µM came to 100.9 ± 0.3%.

For the compound `CC(=O)Oc1c(C(C)(C)C)cc2c(c1C(C)(C)C)CC(C)(C)O2` [Example 3, 5-Acetoxy-4,6-di-t-butyl-2,2-dimethyl-2,3-dihydrobenzofuran], in experiment [1] (setting [3]), the inhibition at 0.1 µM was determined as 27 ± 18.2%, the inhibition at 1 µM turned out to be 1.8 ± 6.8% and the inhibition at 10 µM turned out to be 23.2 ± 11.3%. Moreover, in experiment [1] (setting [4]), the inhibition at 0.1 µM is -6.5 ± 2.7%, the inhibition at 1 µM was -4% and the inhibition at 10 µM came out at 4.3 ± 3.6%.

Turning to `CC1(C)Cc2c(cc(C(C)(C)C)c(O)c2C(C)(C)C)O1` [Example 4, 4,6-Di-t-butyl-5-hydroxy-2,2-dimethyl-2,3-dihydrobenzofuran], in experiment [1] (setting [3]), the inhibition at 0.1 µM came to 11.5 ± 8%, the inhibition at 1 µM amounted to 106 ± 1.2% and the inhibition at 10 µM came to 100.4 ± 0.3%. In addition, in experiment [1] (setting [4]), the inhibition at 0.1 µM was -9.6 ± 2.2%, the inhibition at 1 µM was found to be 103% and the inhibition at 10 µM was 99.6 ± 0.8%.

With `CC(C)(C)c1cc2c(c(C(C)(C)C)c1O)CC(C(C)(C)C)O2` (stereo not drawn) [Example 13, 2,4,6-Tri-t-butyl-5-hydroxy-2,3-dihydrobenzofuran], in experiment [1] (setting [3]), the inhibition at 0.1 µM came out at 32 ± 2.8%, the inhibition at 1 µM amounted to 55.6 ± 15% and the inhibition at 10 µM is 99.9 ± 0.2%. In addition, in experiment [1] (setting [4]), the inhibition at 0.1 µM was 11.9 ± 1.9%, the inhibition at 1 µM is 97.8% and the inhibition at 10 µM was 100.4 ± 0.4%.

Consider `CC(C)(C)c1cc2c(c(C(C)(C)C)c1O)CC1(CCCC1)O2` [Example 18, 4,6-Di-t-butyl-5-hydroxy-2,3-dihydrobenzofuran-2-spiro-1'-cyclopentane], for which, in experiment [1] (setting [3]), the inhibition at 0.1 µM was -1.9 ± 17.3%, the inhibition at 1 µM was 66.8 ± 22.2% and the inhibition at 10 µM came to 99.9 ± 0.2%. In experiment [1] (setting [4]), the inhibition at 0.1 µM is -4.5 ± 6.3%, the inhibition at 1 µM worked out at 98.4% and the inhibition at 10 µM turned out to be 99.7 ± 0.2%.

For `CC(C)(C)c1cc2c(c(C(C)(C)C)c1O)CC1(CCCCC1)O2` [Example 19, 4,6-Di-t-butyl-5-hydroxy-2,3-dihydrobenzofuran-2-spiro-1'-cyclohexane], in experiment [2] (setting [3]), the inhibition at 0.1 µM came out at 2.7 ± 1.6%, the inhibition at 1 µM was determined as 60.6 ± 6.1% and the inhibition at 10 µM was determined as 103 ± 1.2%. Also, in experiment [2] (setting [4]), the inhibition at 0.1 µM came out at 1.2 ± 0.9%, the inhibition at 1 µM is 86.8 ± 5.2% and the inhibition at 10 µM is 101 ± 2.5%.

Consider `CC(C)(C)c1cc2c(c(C(C)(C)C)c1O)CC1(CCOCC1)O2` [Example 22, 4,6-Di-t-butyl-5-hydroxy-2,3-dihydrobenzofuran-2-spiro-4'-tetrahydropyran], for which, in experiment [1] (setting [3]), the inhibition at 0.1 µM was determined as 3.5 ± 10.4%, the inhibition at 1 µM was determined as 102.2 ± 0.2% and the inhibition at 10 µM amounted to 101 ± 0.5%. Besides, in experiment [1] (setting [4]), the inhibition at 0.1 µM is -1.7 ± 0.2%, the inhibition at 1 µM worked out at 101% and the inhibition at 10 µM was 101.1 ± 0.2%.

On to `CCCc1c2c(c(C(C)(C)C)c(O)c1C(C)(C)C)CC(C)(C)O2` [Example 25, 5-Hydroxy-4,6-di-t-butyl-2,2-dimethyl-7-propyl-2,3-dihydrobenzofuran], for which, in experiment [1] (setting [3]), the inhibition at 0.1 µM is 47.4 ± 6%, the inhibition at 1 µM came to 7.9 ± 10.8% and the inhibition at 10 µM was determined as 28.6 ± 6.4%. In experiment [1] (setting [4]), the inhibition at 0.1 µM is 1.4 ± 3.8%, the inhibition at 1 µM came to 0.8% and the inhibition at 10 µM is 66.5 ± 7.7%.

Take `CC(C)(C)c1cc2occc2c(C(C)(C)C)c1O` [Example 27, 4,6-Di-t-butyl-5-hydroxybenzofuran]: in experiment [1] (setting [3]), the inhibition at 0.1 µM amounted to 44.1 ± 24.3%, the inhibition at 1 µM turned out to be 96 ± 0.7% and the inhibition at 10 µM was 97.7 ± 1.7%. In experiment [1] (setting [4]), the inhibition at 0.1 µM came to 4.2 ± 1.4%, the inhibition at 1 µM was found to be 91% and the inhibition at 10 µM was determined as 96.8 ± 0.5%.

In the case of `CCCOc1cc(C(C)(C)C)c(O)c(C(C)(C)C)c1C` [Example 31, 2,6-Di-t-butyl-3-methyl-4-propyloxyphenol], in experiment [1] (setting [3]), the inhibition at 0.1 µM was -0.1 ± 18.7%, the inhibition at 1 µM turned out to be 3.5 ± 18.5% and the inhibition at 10 µM was 68.8 ± 15.8%. Besides, in experiment [1] (setting [4]), the inhibition at 0.1 µM worked out at 6.9 ± 1.1%, the inhibition at 1 µM amounted to 15.7% and the inhibition at 10 µM came out at 71.8 ± 6.9%.

As to `C/C(=C\CCC1(C)Cc2c(cc(C(C)(C)C)c(O)c2C(C)(C)C)O1)CO` (stereo not drawn) [Example 46, 4,6-Di-t-butyl-5-hydroxy-2-(5-hydroxy-4-methyl-3(E)-pentenyl)-2-methyl-2,3-dihydrobenzofuran], in experiment [1] (setting [3]), the inhibition at 0.1 µM was determined as 11 ± 1.5%, the inhibition at 1 µM was 53.5 ± 10% and the inhibition at 10 µM is 104 ± 2%. Also, in experiment [1] (setting [4]), the inhibition at 0.1 µM is -8.9 ± 3.1%, the inhibition at 1 µM was found to be 101% and the inhibition at 10 µM turned out to be 104.4 ± 0.4%.

Regarding `CC1(CO)Cc2c(cc(C(C)(C)C)c(O)c2C(C)(C)C)O1` (stereo not drawn) [Example 48, 4,6-Di-t-butyl-5-hydroxy-2-hydroxymethyl-2-methyl-2,3-dihydrobenzofuran], in experiment [1] (setting [3]), the inhibition at 0.1 µM is -0.5 ± 23.4%, the inhibition at 1 µM was found to be 84.2 ± 4.4% and the inhibition at 10 µM is 98.1 ± 0.7%. Moreover, in experiment [1] (setting [4]), the inhibition at 0.1 µM stood at 3.8 ± 0.3%, the inhibition at 1 µM amounted to 102% and the inhibition at 10 µM worked out at 98.2 ± 0.3%.

As for `CCCCCC1(CCCCC)Cc2c(cc(C(C)(C)C)c(O)c2C(C)(C)C)S1` [Example 50, 4,6-Di-t-butyl-5-hydroxy-2,2-di-n-pentyl-2,3-dihydrobenzothiophene], in experiment [1] (setting [3]), the inhibition at 0.1 µM amounted to 1.9 ± 8%, the inhibition at 1 µM worked out at 37.4 ± 17.1% and the inhibition at 10 µM is 81.6 ± 4%. Moreover, in experiment [1] (setting [4]), the inhibition at 0.1 µM came out at 9.3 ± 3.3%, the inhibition at 1 µM amounted to 15.3% and the inhibition at 10 µM turned out to be 99.2 ± 1.3%.

`CC1Cc2c(cc(C(C)(C)C)c(O)c2C(C)(C)C)S1` (stereo not drawn) [Example 51, 4,6-Di-t-butyl-5-hydroxy-2-methyl-2,3-dihydrobenzothiophene]: in experiment [1] (setting [3]), the inhibition at 0.1 µM was -6.1 ± 7.6%, the inhibition at 1 µM amounted to 17.8 ± 18.1% and the inhibition at 10 µM is 99.3 ± 0.7%. Besides, in experiment [1] (setting [4]), the inhibition at 0.1 µM turned out to be 2.2 ± 4.9%, the inhibition at 1 µM was found to be 28.9% and the inhibition at 10 µM is 101.4 ± 0.3%.

Take `CC1(C)Cc2c(cc(C(C)(C)C)c(O)c2C(C)(C)C)S1` [Example 52, 4,6-Di-t-butyl-5-hydroxy-2,2-dimethyl-2,3-dihydrobenzothiophene]: in experiment [1] (setting [3]), the inhibition at 0.1 µM came to 6.5 ± 1.4%, the inhibition at 1 µM was 41.2 ± 11.9% and the inhibition at 10 µM came to 99.1 ± 0.1%. Besides, in experiment [1] (setting [4]), the inhibition at 0.1 µM is -0.7 ± 1.1%, the inhibition at 1 µM was found to be 96.9% and the inhibition at 10 µM came to 99.5 ± 0.4%.

As for `CC(C)(C)c1cc2sccc2c(C(C)(C)C)c1O` [Example 54, 4,6-Di-t-butyl-5-hydroxybenzo[b]thiophene], in experiment [1] (setting [3]), the inhibition at 0.1 µM stood at 96 ± 0.5%, the inhibition at 1 µM was 90 ± 5% and the inhibition at 10 µM turned out to be 94.8 ± 2.2%. Besides, in experiment [1] (setting [4]), the inhibition at 0.1 µM worked out at 35.9 ± 26.4%, the inhibition at 1 µM is 96.7% and the inhibition at 10 µM amounted to 98.9 ± 0.4%.

For `CC(C)(C)c1cc2c(c(C(C)(C)C)c1O)CC1(CCCCC1)S2` [Example 58, 4,6-Di-t-butyl-5-hydroxy-2,3-dihydrobenzothiophene-2-spiro-1'-cyclohexane], in experiment [1] (setting [3]), the inhibition at 0.1 µM worked out at 3.6 ± 18.3%, the inhibition at 1 µM was found to be 95 ± 4.2% and the inhibition at 10 µM amounted to 99.3 ± 0.9%. In experiment [1] (setting [4]), the inhibition at 0.1 µM came out at 11 ± 4%, the inhibition at 1 µM was found to be 74.3% and the inhibition at 10 µM was determined as 101 ± 0.2%.

With `CN(C)CC1(C)Cc2c(cc(C(C)(C)C)c(O)c2C(C)(C)C)S1` (stereo not drawn) [Example 61, 4,6-Di-t-butyl-5-hydroxy-2-(N,N-dimethylaminomethyl)-2-methyl-2,3-dihydrobenzothiophene], in experiment [2] (setting [3]), the inhibition at 0.1 µM is 5 ± 1.2%, the inhibition at 1 µM was 85.7 ± 8.1% and the inhibition at 10 µM amounted to 101.3 ± 0.6%. In experiment [2] (setting [4]), the inhibition at 0.1 µM turned out to be 5.1 ± 1.5%, the inhibition at 1 µM was 97.6% and the inhibition at 10 µM was found to be 101.7 ± 0.5%.
